# Test results published in patent US10508077B2 (FORMA Therapeutics, Inc., priority 2015, dated 2019).
# pIC50: −log10 of the molar value.
# Molecular target: T1, Full length human recombinant HDAC8 protein (Homo sapiens, UniProt Q9BY41)
# T1 construct: Full length human recombinant HDAC8 protein was expressed in baculoviral system; made in house
# T1 sequence (Q9BY41 1-377): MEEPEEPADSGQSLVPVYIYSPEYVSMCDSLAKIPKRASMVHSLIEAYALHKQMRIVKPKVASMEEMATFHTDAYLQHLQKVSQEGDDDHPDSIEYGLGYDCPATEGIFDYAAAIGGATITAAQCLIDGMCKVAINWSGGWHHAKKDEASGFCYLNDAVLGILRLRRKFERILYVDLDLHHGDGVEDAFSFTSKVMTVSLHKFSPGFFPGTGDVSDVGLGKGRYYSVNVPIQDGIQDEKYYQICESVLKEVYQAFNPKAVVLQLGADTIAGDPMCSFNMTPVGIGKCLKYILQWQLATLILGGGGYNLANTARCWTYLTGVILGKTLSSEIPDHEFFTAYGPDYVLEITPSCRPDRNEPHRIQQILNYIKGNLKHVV
# Assay: In vitro histone deacetylase assay: enzymatic HDAC8 assay, electrophoretic mobility shift
# Format: biochemical
# Conditions: substrate RHKK(Ac)-NH2, 1 nM enzyme, compounds listed under IC50 range headings
# Summary of the method: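 Baculovirus-expressed full-length human HDAC8 (1 nM) deacetylated 2 µM fluorescent RHKK(Ac)-NH2 peptide in pH 7.5 HEPES, 1% DMSO, at 25 °C, with 12 compound concentrations at 3× spacing. SDS-quenched; product and substrate resolved by microfluidic electrophoresis, P/(S+P) converted to percent inhibition, and IC50 obtained by 4-parameter fit.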
row,Compound,pIC50
1,"CC(C)S(=O)(=O)N1CCN(c2ccccc2/C=C/C(=O)NO)CC1 [Example I-249, (E)-N-hydroxy-3-(2-(4-(isopropylsulfonyl)piper-azine-1-yl)phenyl)acrylamide]",> 6.00
2,"Cc1oc(-c2ccc(Cl)cc2)cc1C(=O)N1CCN(c2ccccc2/C=C/C(=O)NO)CC1 [Example I-214, (E)-3-(2-(4-(5-(4-chlorophenyl)-2-methylfuran-3-carbonyl)piperazin-1-yl)phenyl)-N-hydroxyacrylamide]",> 6.00
3,"O=C(/C=C/c1ccccc1NCc1nc2ccc(C(F)(F)F)cc2[nH]1)NO [Example I-4, (E)-N-hydroxy-3-(2-(((6-(trifluoromethyl)-1H-benzo[d]imidazol-2-yl)methyl)amino)phenyl)acrylamide]",5.00 to 6.00
4,"O=C(/C=C/c1ccccc1N1CCN(Cc2ccccc2OC(F)F)CC1)NO [Example I-176, (E)-3-(2-(4-(2-(difluoromethoxy)benzyl)piperazin-1-yl)phenyl)-N-hydroxyacrylamide]",> 6.00
5,"O=C(/C=C/c1ccccc1N1CCN(Cc2cn3ccccc3n2)CC1)NO [Example I-188, (E)-N-hydroxy-3-(2-(4-(imidazo[1,2-a]pyridin-2-ylmethyl)piperazin-1-yl)phenyl)acrylamide]",> 6.00
6,"O=C(/C=C/c1ccccc1N1CCN(S(=O)(=O)c2ccccc2OC(F)(F)F)CC1)NO [Example I-29, (E)-N-hydroxy-3-(2-(4-((2-(trifluoromethoxy)phenyl)sulfonyl)piperazin-1-yl)phenyl)acrylamide]",5.00 to 6.00
7,"O=C(/C=C/c1ccccc1N1CCC(NS(=O)(=O)c2ccc3c(c2)OCCO3)CC1)NO [Example I-231, (E)-3-(2-(4-((2,3-dihydrobenzo[b][1,4]dioxine)-6-sulfonamido)piperidin-1-yl)phenyl)-N-hydroxyacrylamide]",> 6.00
8,"CN1CCCC(C(=O)N2CCN(c3ccccc3/C=C/C(=O)NO)CC2)C1 (centres unmarked) [Example I-209, (E)-N-hydroxy-3-(2-(4-(1-methylpiperidine-3-carbonyl)piperazin-1-yl)phenyl)acrylamide]",> 6.00
9,"O=C(/C=C/c1cccnc1CNc1ccc(-c2ccccc2)c(C(F)(F)F)c1)NO [Example I-217, (E)-N-hydroxy-3-(2-(((2-(trifluoromethyl)-[1,1′-biphenyl]-4-yl)amino)methyl)pyridin-3-yl)acrylamide]",> 6.00
10,"Cc1cc(C(=O)Nc2ccccc2/C=C/C(=O)NO)ccc1-n1cnnn1 [Example I-286, (E)-N-(2-(3-(hydroxyamino)-3-oxoprop-1-en-1-yl)phenyl)-3-methyl-4-(1H-tetrazol-1-yl)benzamide]",> 6.00
11,"O=C(/C=C/c1ccccc1N1CC2CC1CN2C(=O)Cc1ccc(Cl)cc1)NO [Example I-316, (E)-3-(2-((1S,4S)-5-(2-(4-chlorophenyl)acetyl)-2,5-diazabicyclo[2.2.1]heptan-2-yl)pheynyl)-N-hydroxyacrylamide]",> 6.00
12,"Cc1ccccc1C(C(=O)Nc1ccccc1/C=C/C(=O)NO)C(C)C (centres unmarked) [Example I-278, (E)-N-(2-(3-(hydroxyamino)-3-oxoprop-1-en-1-yl)phenyl)-3-methyl-2-(o-tolyl)butanamide]",> 6.00
13,CS(=O)(=O)N1CCCC(C(=O)NC2CCN(c3ccccc3/C=C/C(=O)NO)CC2)C1 (centres unmarked) [Example I-127],> 6.00
14,"O=C(/C=C/c1ccccc1C(=O)N1CCC(C(F)(F)F)CC1)NO [II-23, (E)-N-hydroxy-3-(2-(4-(trifluoromethyl)piperidine-1-carbonyl)phenyl)acrylamide]",> 6.00
15,"O=C(/C=C/c1ccccc1C(=O)NCc1ccc(-c2ccccc2)cc1)NO [II-7, (E)-N-([1,1′-biphenyl]-4-ylmethyl)-2-(3-(hydroxyamino)-3-oxoprop-1-en-1-yl)benzamide]",5.00 to 6.00
16,"CN(C)Cc1ccccc1CN1CCN(c2ccccc2/C=C/C(=O)NO)CC1 [Example I-162, (E)-3-(2-(4-(2-((dimethylamino)methyl)benzyl)piperazin-1-yl)phenyl)-N-hydroxyacrylamide]",> 6.00

row,Compound,pIC50
1,"O=C(/C=C/c1ccccc1N1CCN(C(=O)c2ccc(OC(F)F)cc2)CC1)NO [Example I-212, (E)-3-(2-(4-(4-(difluoromethoxy)benzoyl)piperazin-1-yl)phenyl)-N-hydroxyacrylamide]",> 6.00
2,"O=C(/C=C/c1ccccc1N1CCC(NC(=O)CCC(F)(F)F)CC1)NO [Example I-130, (E)-4,4,4-trifluoro-N-(1-(2-(3-(hydroxyamino)-3-oxoprop-1-en-1-yl)phenyl)piperidin-4-yl)butanamide]",> 6.00
3,"O=C(/C=C/c1ccccc1N1CCC(NCc2ccccc2OC(F)F)CC1)NO [Example I-191, (E)-3-(2-(4-((2-(difluoromethoxy)benzyl)amino)piperidin-1-yl)phenyl)-N-hydroxyacrylamide]",> 6.00
4,"COc1cc(CC(=O)NC2CCN(c3ccccc3/C=C/C(=O)NO)CC2)ccc1O [Example I-139, (E)-N-hydroxy-3-(2-(4-(2-(4-hydroxy-3-methoxyphenyl)acetami-do)piperidin-1-yl)phenyl)acrylamide]",> 6.00
5,"O=C(/C=C/c1ccccc1NC(=O)c1cc2n(n1)CCC2)NO [Example I-74, (E)-N-(2-(3-(hydroxyamino)-3-oxoprop-1-en-1-yl)phenyl)-5,6-dihydro-4H-pyrrolo[1,2-b]pyrazole-2-carboxamide]",> 6.00
6,"Cc1noc(C)c1S(=O)(=O)NC1CCN(c2ccccc2/C=C/C(=O)NO)CC1 [Example I-220, (E)-3-(2-(4-((3,5-dimethylisoxazole)-4-sulfonamido)piperidin-1-yl)phenyl)-N-hydroxyacrylamide]",> 6.00
7,"CNc1ccc(C(=O)NC2CCN(c3ccccc3/C=C/C(=O)NO)CC2)cc1 [Example I-133, (E)-N-(1-(2-(3-(hydroxyamino)-3-oxoprop-1-en-1-yl)phenyl)piperidin-4-yl)-4-(methylamino)benzamide]",> 6.00
8,"O=C(/C=C/c1ccccc1NCc1ccc(Cl)cc1)NO [Example I-86, (E)-3-(2-((4-chlorobenzyl)amino)phenyl)-N-hydroxyacrylamide]",> 6.00
9,N#Cc1ccc2nc(CNc3ccccc3/C=C/C(=O)NO)[nH]c2c1 [Example I-51],> 6.00
10,"CN1CCC(C)(CN2CCN(c3ccccc3/C=C/C(=O)NO)CC2)CC1 [Example I-187, (E)-3-(2-(4-((1,4-dimethylpiperidin-4-yl)methyl)piperazin-1-yl)phenyl)-N-hydroxyacrylamide]",> 6.00
11,"O=C(/C=C/c1ccccc1N1CCN(S(=O)(=O)c2ccc(Cl)s2)CC1)NO [Example I-253, (E)-3-(2-(4-((5-chlorothiophen-2-yl)sulfonyl)piperazin-1-yl)phenyl)-N-hydroxyacrylamide]",> 6.00
12,"O=C(/C=C/c1ccccc1NCc1cc2cccnc2[nH]1)NO [Example I-102, (E)-3-(2-(((1H-pyrrolo[2,3-b]pyridin-2-yl)methyl)amino)phenyl)-N-hydroxyacrylamide]",> 6.00
13,"CN(C)Cc1ccccc1CNC1CCN(c2ccccc2C=CC(=O)NO)CC1 [Example I-17, (E)-3-(2-(4-((2-((dimethylamino)methyl)benzyl)amino)piperidin-1-yl)phenyl-N-hydroxyacrylamide]",5.00 to 6.00
14,"CCCCN1CCN(c2ccccc2/C=C/C(=O)NO)CC1 [Example I-177, (E)-3-(2-(4-butylpiperazin-1-yl)phenyl)-N-hydroxyacrylamide]",> 6.00
15,"COc1ccc(OC)c(S(=O)(=O)NC2CCN(c3ccccc3/C=C/C(=O)NO)CC2)c1 [Example I-242, (E)-3-(2-(4-((2,5-dimethoxyphenyl)sulfon-amido)piperidin-1-yl)phenyl)-N-hydroxyacrylamide]",> 6.00
16,"O=C(/C=C/c1ccccc1N1CCN(CCCc2ccccc2)CC1)NO [Example I-166, (E)-N-hydroxy-3-(2-(4-(3-phenylpropyl)piperazin-1-yl)phenyl)acrylamide]",> 6.00
